From the supplement of paper PMC11061612

Key:
[1] = compound: CC(=O)O[C@H]1C(=O)[C@@]2(C)[C@H]([C@H](OC(=O)c3ccccc3)[C@]3(O)C[C@H](OC(=O)[C@H](O)[C@@H](NC(=O)c4ccccc4)c4ccccc4)C(C)=C1C3(C)C)[C@]1(OC(C)=O)CO[C@@H]1C[C@@H]2O [Paclitaxel]; settings: max 3 µM
How it was run: (§1)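 Plates with 1536 wells received cancer cell lines in 7.5 μl of DMEM/F12 or RPMI containing 10% FBS. After 24 hours at 37°C and 5% CO2, cells were dosed for 72 hours with final DMSO typically 0.2%, and viability was read by CellTiter-Glo 2.0 luminescence scaled between blank-well and DMSO-well means. The single-agent IC50 was taken from a logistic fit of the dose responses made with a non-linear mixed effects model, that logistic curve having two parameters.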

[2] = compound: C1CN(CCC1(C(=O)N[C@@H](CCO)C2=CC=C(C=C2)Cl)N)C3=NC=NC4=C3C=CN4 [AZD5363]; settings: max 10 µM
How it was run: as §1

[3] = compound: O=C(Nc1ccc2[nH]nc(-c3ccncc3)c2c1)[C@@H]1CCN(CC(=O)N2CCN(c3ccc(-c4ncccn4)cc3)CC2)C1; settings: max 5 µM
How it was run: as §1

[4] = compound: CC(C)n1c(=O)n(C)c2cnc3cc(F)c(-c4ccc(OCCCN5CCCCC5)nc4)cc3c21 [AZD1390]; settings: max 0.3 µM
How it was run: as §1

[5] = compound: CC(=O)c1c(C)c2cnc(Nc3ccc(N4CCNCC4)cn3)nc2n(C2CCCC2)c1=O [Palbociclib]; settings: max 10 µM
How it was run: as §1

[6] = compound: NC1(c2ccc(-c3nc4ccn5c(=O)[nH]nc5c4cc3-c3ccccc3)cc2)CCC1 [MK-2206]; settings: max 10 µM
How it was run: as §1

[7] = compound: CC1=C(C(=CC=C1)Cl)NC(=O)C2=CN=C(S2)NC3=CC(=NC(=N3)C)N4CCN(CC4)CCO [Dasatinib]; settings: max 2 µM
How it was run: as §1

[8] = compound: CS(=O)(=O)CCNCc1ccc(-c2ccc3ncnc(Nc4ccc(OCc5cccc(F)c5)c(Cl)c4)c3c2)o1 [Lapatinib]; settings: max 10 µM
How it was run: as §1

[9] = compound: COc1cccc(OCCCN)c1-c1cc(Nc2cnc(C#N)cn2)n[nH]1 [Prexasertib]; settings: max 1 µM
How it was run: as §1

[10] = compound: CN(C)CCCOc1ccc(-c2ccc3ncc4c(c3c2)n(C2CCOCC2)c(=O)n4C)cn1 [AZD0156]
How it was run: as §1

[11] = compound: Nc1ccn([C@@H]2O[C@H](CO)[C@@H](O)C2(F)F)c(=O)n1 [Gemcitabine]; settings: max 0.3 µM
How it was run: as §1

[12] = compound: COc1cc([C@@H]2c3cc4c(cc3[C@@H](O[C@@H]3O[C@@H]5CO[C@@H](C)O[C@H]5[C@H](O)[C@H]3O)[C@H]3COC(=O)[C@H]23)OCO4)cc(OC)c1O [Etoposide]; settings: max 10 µM
How it was run: as §1

[13] = compound: C1CC(C1)(C(=O)[O-])C(=O)[O-].N.N.[Pt+2] [Carboplatin]; settings: max 10 µM
How it was run: as §1

[14] = compound: COc1cccc2c1C(=O)c1c(O)c3c(c(O)c1C2=O)C[C@@](O)(C(=O)CO)C[C@@H]3O[C@H]1C[C@H](N)[C@H](O)[C@H](C)O1 [Doxorubicin]; settings: max 1 µM
How it was run: as §1

[15] = compound: C[C@@H](c1ccc2nccn2c1)n1nnc2ncc(-c3cnn(C)c3)nc21 [Savolitinib]; settings: max 1 µM
How it was run: as §1

[16] = compound: CCc1c2c(nc3ccc(O)cc13)-c1cc3c(c(=O)n1C2)COC(=O)[C@]3(O)CC [SN-38]; settings: max 0.3 µM
How it was run: as §1

[17] = compound: Cc1nc(-c2cn3c(n2)-c2ccc(-c4cnn(C(C)(C)C(N)=O)c4)cc2OCC3)n(C(C)C)n1 [Taselisib]; settings: max 10 µM
How it was run: as §1

[18] = compound: CN(CC[C@H](CSC1=CC=CC=C1)NC2=C(C=C(C=C2)S(=O)(=O)NC(=O)C3=CC=C(C=C3)N4CCC(CC4)[C@H](C5=CC=CC=C5C6=CC=C(C=C6)Cl)O)S(=O)(=O)C(F)(F)F)CCO [AZD4320]; settings: max 1 µM
How it was run: as §1

[19] = compound: CC(=O)Nc1cccc(-n2c(=O)n(C3CC3)c(=O)c3c(Nc4ccc(I)cc4F)n(C)c(=O)c(C)c32)c1 [Trametinib]; settings: max 1 µM
How it was run: as §1

[20] = compound: C[C@@H](Nc1cc(F)cc(F)c1)c1cc(C(=O)N(C)C)cc2c(=O)cc(N3CCOCC3)oc12 [AZD8186]; settings: max 10 µM
How it was run: as §1

[21] = compound: C=CCn1c(=O)c2cnc(Nc3ccc(N4CCN(C)CC4)cc3)nc2n1-c1cccc(C(C)(C)O)n1 [AZD1775]
How it was run: as §1

[22] = compound: O=c1[nH]cc(F)c(=O)[nH]1 [5-Fluorouracil]; settings: max 20 µM
How it was run: as §1

[23] = compound: COc1cc2ncnc(Nc3ccc(F)c(Cl)c3)c2cc1OCCCN1CCOCC1 [Gefitinib]; settings: max 10 µM
How it was run: as §1

[24] = compound: O=C(c1cc(Cc2n[nH]c(=O)c3ccccc23)ccc1F)N1CCN(C(=O)C2CC2)CC1 [Olaparib]; settings: max 10 µM
How it was run: as §1

[25] = compound: N#Cc1cnc(Nc2cc(NC[C@H]3CNCCO3)c(C(F)(F)F)cn2)cn1 [SRA737]; settings: max 10 µM
How it was run: as §1

[26] = compound: COc1nnc2ccc(N3CCC(c4ccc(OCCN5CCN(C)C(=O)[C@H]5C)cc4)CC3)nn12 [AZD5153]; settings: max 1 µM
How it was run: as §1

[27] = compound: C[C@@H](Oc1cc(-c2cnn(C3CCNCC3)c2)cnc1N)c1c(Cl)ccc(F)c1Cl [Crizotinib]; settings: max 10 µM
How it was run: as §1

[28] = compound: C[C@@H]1COCCN1C2=NC(=NC(=C2)C3(CC3)[S@](=N)(=O)C)C4=C5C=CNC5=NC=C4 [AZD6738]; settings: max 10 µM
How it was run: as §1

[29] = compound: Cn1cnc2c(F)c(Nc3ccc(Br)cc3Cl)c(C(=O)NOCCO)cc21 [Selumetinib]; settings: max 10 µM
How it was run: as §1

[30] = compound: COc1cc(Nc2ncc3c(n2)-c2ccc(Cl)cc2C(c2c(F)cccc2OC)=NC3)ccc1C(=O)O [Alisertib]; settings: max 10 µM
How it was run: as §1

[31] = compound: CCN(CCO)CCCOc1ccc2c(Nc3cc(CC(=O)Nc4cccc(F)c4)[nH]n3)ncnc2c1 [AZD2811]; settings: max 1 µM
How it was run: as §1

[32] = compound: Cc1cc2ncnn2cc1Nc1ncc2c(n1)n(C1CCOCC1)c(=O)n2C [AZD7648]; settings: max 10 µM
How it was run: as §1

[33] = compound: Cc1c2c(nn1C)CSCc1cc(n(C)n1)CSc1cc(c3ccccc3c1)OCCCc1c(C(=O)O)n(C)c3c-2c(Cl)ccc13 [AZD5991]; settings: max 1 µM
How it was run: as §1

[34] = compound: CC1(C)CCC(CN2CCN(c3ccc(C(=O)NS(=O)(=O)c4ccc(NCC5CCOCC5)c([N+](=O)[O-])c4)c(Oc4cnc5[nH]ccc5c4)c3)CC2)=C(c2ccc(Cl)cc2)C1 [Venetoclax]; settings: max 1 µM
How it was run: as §1

[35] = compound: CC1=CN2[C@@H](C1)C=NC3=CC(=C(C=C3C2=O)OC)OCCCCCOC4=C(C=C5C(=C4)N=C[C@@H]6CC(=CN6C5=O)C)OC [SG3199]; settings: max 0.001 µM
How it was run: as §1

Cell Line	IC50, cell viability 72 h [1] [µM]	IC50, cell viability 72 h [2] [µM]	IC50, cell viability 72 h [3] [µM]	IC50, cell viability 72 h [4] [µM]	IC50, cell viability 72 h [5] [µM]	IC50, cell viability 72 h [6] [µM]	IC50, cell viability 72 h [7] [µM]	IC50, cell viability 72 h [8] [µM]	IC50, cell viability 72 h [9] [µM]	IC50, cell viability 72 h ([10]; max 1 µM) [µM]	IC50, cell viability 72 h [11] [µM]	IC50, cell viability 72 h [12] [µM]	IC50, cell viability 72 h [13] [µM]	IC50, cell viability 72 h [14] [µM]	IC50, cell viability 72 h [15] [µM]	IC50, cell viability 72 h [16] [µM]	IC50, cell viability 72 h [17] [µM]	IC50, cell viability 72 h [18] [µM]	IC50, cell viability 72 h [19] [µM]	IC50, cell viability 72 h [20] [µM]	IC50, cell viability 72 h ([21]; max 1 µM) [µM]	IC50, cell viability 72 h [22] [µM]	IC50, cell viability 72 h [23] [µM]	IC50, cell viability 72 h [24] [µM]	IC50, cell viability 72 h [25] [µM]	IC50, cell viability 72 h [26] [µM]	IC50, cell viability 72 h [27] [µM]	IC50, cell viability 72 h [28] [µM]	IC50, cell viability 72 h [29] [µM]	IC50, cell viability 72 h [30] [µM]	IC50, cell viability 72 h [31] [µM]	IC50, cell viability 72 h [32] [µM]	IC50, cell viability 72 h [33] [µM]	IC50, cell viability 72 h [34] [µM]	IC50, cell viability 72 h [35] [µM]	IC50, cell viability 72 h ([10]; max 3 µM) [µM]	IC50, cell viability 72 h ([21]; max 3 µM) [µM]
SW48 (Colorectal Carcinoma)	0.00337	> 10	1.33	> 0.3	> 10	> 10	> 2	8.92	0.117	> 1	0.0926	0.517	> 10	0.0686	> 1	0.0133	2.37	> 1	0.123	> 10	> 1	> 20	> 10	> 10	> 10	0.254	3.36	7.01	> 10	0.0584	0.0239	> 10	> 1	> 1	> 0.001	–	–
SW948 (Colorectal Carcinoma)	0.0299	6.29	2.47	> 0.3	> 10	> 10	> 2	> 10	0.136	–	> 0.3	> 10	> 10	> 1	> 1	> 0.3	0.343	> 1	0.0352	> 10	–	> 20	> 10	> 10	> 10	0.918	5.44	> 10	1.08	0.0444	> 1	> 10	> 1	> 1	> 0.001	> 3	1.39
Saos-2 (Osteosarcoma)	0.0446	> 10	> 5	> 0.3	> 10	> 10	> 2	> 10	0.102	–	0.0364	3.65	> 10	0.556	> 1	0.0109	3.21	> 1	> 1	> 10	–	> 20	> 10	> 10	> 10	0.887	5.11	> 10	> 10	9.26	0.971	> 10	> 1	> 1	> 0.001	> 3	1.23
WSU-DLCL2 (B-Cell Non-Hodgkin's Lymphoma)	0.00448	0.253	> 5	> 0.3	7.44	1.67	> 2	> 10	0.0188	–	0.0065	0.73	> 10	0.0539	> 1	0.00596	2.7	0.794	> 1	5.81	–	> 20	> 10	> 10	> 10	0.0559	8.08	2.69	> 10	1.64	> 1	> 10	0.137	> 1	> 0.001	2.15	0.531
YT (Other Blood Carcinomas)	0.0465	> 10	> 5	> 0.3	4.04	> 10	> 2	> 10	0.0268	–	0.0365	0.374	> 10	0.511	> 1	0.00413	1.79	> 1	> 1	> 10	–	0.808	> 10	> 10	4.81	0.196	8.37	3.17	> 10	> 10	> 1	6.93	0.0494	> 1	> 0.001	> 3	0.442
